Key:
5-HT2A receptor = biological target: T1, 5-HT2A receptor (Homo sapiens, UniProt P28223); test: radioligand binding assay for 5-HT2A receptor ([3H]-ketanserin); details: human cortex or recombinant 5-HT2A receptor expressed in CHO-K1 cells; for IC50: read-out: binding affinity to 5-HT2A serotonin receptor expressed as IC50 value; for Ki: read-out: binding affinity to 5-HT2A serotonin receptor, Ki value
T1 construct: expressed in transfected cells; alternatively human cortex tissue
Method: (§1) The effect of the compounds of the present invention on the neurochemical steady state was determined by in vitro investigations such as a radionuclide-marked radioligand binding assay for 5-HT2A (Bonhaus D. W. Br. J. Pharmacol. 1995, 115:622; Saucier C. J. Neurochem. 1997, 68:1998) and 5-HT2C receptors (Wolf W. A. J. Neurochem. 1997, 69:1449), in vitro binding assay for the σ1 receptor (Thomson W. and Donn R. Arthritis Res. 2002, 4: 302-306) and by in vivo investigations in a tail suspension test (Vogel H. G. and Vogel W. H. Drug Discovery and Evaluation Pharmacological Assays, Springer 1997, 304), in amphetamine-induced hyperlocomotion in mice (Millan M. J. et al, 1998 J. Pharmacol. Exp. Ther. 287: 167-186), in a forced swim test in mice (Porsolt R. D. et al. Arch. Int. Pharmacodyn. 1977, 229:327-336), in meta-chlorophenyl piperazine (m-CPP) test on rats (Drug Dev. Res. 1989, 18:119-144), and in apomorphine, tryptamine, norepinephrine (ATN) test in rats (Arch. Int. Pharmacodyn. 1977, 227:238-253).
(§2) A small concentration of a radioligand having a great affinity for binding to a receptor was incubated with a tissue sample enriched with a certain receptor (1-5 mg of tissue) in a buffered medium (0.2-5 mL). Recombinant human HT2A and HT2C receptors were expressed in CHO-K1 or COS-7 cells and were also used for competitive binding. During incubation the radioligand bound to the receptor. When a binding balance was achieved, the receptors to which the radioligand was bound were separated from those to which said ligand was not bound, and the radioactivity of the receptor/radioligand complex was measured. The interaction of the tested compounds with receptors was tested in competitive binding experiments. Various concentrations of tested compounds were added to the incubation mixture containing a prepared tissue enriched with corresponding receptors and the radioligand. The radioligand binding was inhibited by the test compounds proportionally to the affinity of a certain compound for the receptor and to the concentration of the compound.
The radioligand used for the determination of binding to 5-HT2A receptor was [^3H]-ketanserin and the tissue used was human cortex or recombinant 5-HT2A receptor expressed in CHO-K1 cells.

5-HT2C receptor = biological target: T2, 5-HT2C receptor (Homo sapiens, UniProt P28335); test: radioligand binding assay for 5-HT2C receptor ([3H]-mesulergine); details: choroid plexus or recombinant 5-HT2C receptor expressed in CHO-K1 cells; for IC50: read-out: binding affinity to 5-HT2C serotonin receptor expressed as IC50 value; for Ki: read-out: binding affinity to 5-HT2C serotonin receptor, Ki value
T2 construct: expressed in transfected cells; alternatively choroid plexus tissue
T2 sequence (P28335 33-458): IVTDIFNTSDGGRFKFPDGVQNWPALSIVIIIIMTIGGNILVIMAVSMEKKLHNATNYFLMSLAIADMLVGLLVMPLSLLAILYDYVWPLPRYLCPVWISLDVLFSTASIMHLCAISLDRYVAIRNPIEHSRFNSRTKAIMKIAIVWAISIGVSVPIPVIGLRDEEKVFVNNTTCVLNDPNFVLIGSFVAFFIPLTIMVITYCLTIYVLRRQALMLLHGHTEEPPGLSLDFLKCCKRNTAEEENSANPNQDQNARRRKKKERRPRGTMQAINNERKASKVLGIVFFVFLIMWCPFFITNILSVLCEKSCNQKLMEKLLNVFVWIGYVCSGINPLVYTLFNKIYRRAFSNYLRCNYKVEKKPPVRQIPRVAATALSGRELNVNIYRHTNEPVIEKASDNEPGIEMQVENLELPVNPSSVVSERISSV
Method: as §1, §2
The radioligand used for the determination of binding to 5-HT2C receptor was [^3H]-mesulergine and the tissue used was choroid plexus or recombinant 5-HT2C receptor expressed in CHO-K1 cells.

T1 sequence (P28223 whole entry): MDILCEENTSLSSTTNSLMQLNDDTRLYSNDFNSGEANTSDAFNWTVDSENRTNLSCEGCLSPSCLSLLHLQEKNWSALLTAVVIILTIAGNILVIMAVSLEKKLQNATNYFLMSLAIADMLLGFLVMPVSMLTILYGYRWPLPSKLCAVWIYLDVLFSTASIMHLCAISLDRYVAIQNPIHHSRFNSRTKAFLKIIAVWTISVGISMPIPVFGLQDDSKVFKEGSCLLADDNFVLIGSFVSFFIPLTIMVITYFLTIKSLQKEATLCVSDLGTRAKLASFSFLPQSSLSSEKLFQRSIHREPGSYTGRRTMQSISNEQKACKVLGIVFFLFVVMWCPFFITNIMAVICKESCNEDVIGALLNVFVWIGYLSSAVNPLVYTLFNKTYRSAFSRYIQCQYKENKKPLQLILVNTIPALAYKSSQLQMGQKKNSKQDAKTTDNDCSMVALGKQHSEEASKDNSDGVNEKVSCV

Row | IC50 (5-HT2A receptor) | Ki (5-HT2A receptor) | IC50 (5-HT2C receptor) | Ki (5-HT2C receptor) | SMILES
1 | < 200 nM | < 100 nM | < 200 nM | < 100 nM | CN(C)CCOCc1n[nH]c2c1-c1ccccc1Oc1ccc(Cl)cc1-2 [[2-(11-chloro-1H-8-oxa-1,2-diaza-dibenzo[e,h]azulen-3-ylmethoxy)-ethyl]-dimethyl-amine]
2 | < 200 nM | < 100 nM | < 200 nM | < 100 nM | CN(C)CCCOCc1c2c(nn1CCc1ccccc1)-c1ccccc1Sc1ccccc1-2 [dimethyl-[3-(2-phenethyl-2H-8-thia-1,2-diaza-dibenzo[e,h]azulen-3-ylmethoxy)-propyl]-amine]
3 | < 200 nM | < 100 nM | < 200 nM | < 100 nM | CN(C)CCCOCc1n[nH]c2c1-c1ccccc1Sc1ccccc1-2 [dimethyl-[3-(11H-8-thia-1,2-diaza-dibenzo[e,h]azulen-3-ylmethoxy)-propyl]-amine]
